Measurements published in ChEMBL document CHEMBL4507281, “Data for DCP probe BI-4394” (2021).

Experiments:
Settings in all cases: Compound concentration 100.0 nM
[1] = biological target: Interferon-induced, double-stranded RNA-activated protein kinase (Homo sapiens) (UniProt P19525)
[2] = biological target: Ribosomal protein S6 kinase alpha-5 (Homo sapiens) (UniProt O75582)
[3] = biological target: Macrophage-stimulating protein receptor (Homo sapiens) (UniProt Q04912)
[4] = biological target: Dual specificity protein kinase CLK2 (Homo sapiens) (UniProt P49760)
[5] = biological target: Serine/threonine-protein kinase PAK 2 (Homo sapiens) (UniProt Q13177)
[6] = test system: Tyrosine-protein kinase ABL1 (Homo sapiens), P00519 [Q252H]
[7] = test system: Phosphatidylinositol 4,5-bisphosphate 3-kinase catalytic subunit alpha isoform (Homo sapiens), P42336 [M1043I]
Phosphatidylinositol 4,5-bisphosphate 3-kinase catalytic subunit alpha isoform (Homo sapiens), P42336 [M1043I], sequence (P42336 whole entry M1043I, canonical isoform): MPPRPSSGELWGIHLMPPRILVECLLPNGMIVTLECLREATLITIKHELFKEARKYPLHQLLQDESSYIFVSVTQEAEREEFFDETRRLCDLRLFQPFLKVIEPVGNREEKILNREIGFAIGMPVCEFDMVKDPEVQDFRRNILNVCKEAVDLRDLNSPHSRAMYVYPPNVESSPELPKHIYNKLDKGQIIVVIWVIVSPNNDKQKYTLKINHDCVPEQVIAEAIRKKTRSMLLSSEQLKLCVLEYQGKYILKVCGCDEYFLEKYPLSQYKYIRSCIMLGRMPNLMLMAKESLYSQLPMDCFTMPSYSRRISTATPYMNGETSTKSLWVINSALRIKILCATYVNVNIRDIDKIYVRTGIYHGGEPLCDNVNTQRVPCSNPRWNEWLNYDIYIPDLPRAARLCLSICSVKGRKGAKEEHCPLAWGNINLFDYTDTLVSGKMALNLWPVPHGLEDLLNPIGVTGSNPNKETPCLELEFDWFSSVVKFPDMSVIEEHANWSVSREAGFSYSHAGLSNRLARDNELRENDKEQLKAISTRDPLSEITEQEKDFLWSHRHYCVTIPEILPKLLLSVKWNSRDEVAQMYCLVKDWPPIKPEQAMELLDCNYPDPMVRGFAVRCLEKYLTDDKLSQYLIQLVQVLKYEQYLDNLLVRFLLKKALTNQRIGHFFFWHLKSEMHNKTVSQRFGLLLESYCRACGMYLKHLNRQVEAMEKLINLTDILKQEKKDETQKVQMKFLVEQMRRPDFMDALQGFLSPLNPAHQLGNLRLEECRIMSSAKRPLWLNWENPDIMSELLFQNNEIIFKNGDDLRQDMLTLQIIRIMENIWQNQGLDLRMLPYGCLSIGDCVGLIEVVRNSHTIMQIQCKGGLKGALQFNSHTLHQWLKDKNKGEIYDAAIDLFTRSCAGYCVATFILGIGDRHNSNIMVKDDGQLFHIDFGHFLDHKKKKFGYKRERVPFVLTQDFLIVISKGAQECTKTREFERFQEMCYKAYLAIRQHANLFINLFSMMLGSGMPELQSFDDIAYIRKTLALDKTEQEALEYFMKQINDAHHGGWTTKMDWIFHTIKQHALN

[8] = test system: eIF-2-alpha kinase GCN2 (Homo sapiens), Q9P2K8 [S808G]
[9] = biological target: Serine/threonine-protein kinase ULK3 (Homo sapiens) (UniProt Q6PHR2)
Serine/threonine-protein kinase ULK3 (Homo sapiens), sequence (Q6PHR2 whole entry): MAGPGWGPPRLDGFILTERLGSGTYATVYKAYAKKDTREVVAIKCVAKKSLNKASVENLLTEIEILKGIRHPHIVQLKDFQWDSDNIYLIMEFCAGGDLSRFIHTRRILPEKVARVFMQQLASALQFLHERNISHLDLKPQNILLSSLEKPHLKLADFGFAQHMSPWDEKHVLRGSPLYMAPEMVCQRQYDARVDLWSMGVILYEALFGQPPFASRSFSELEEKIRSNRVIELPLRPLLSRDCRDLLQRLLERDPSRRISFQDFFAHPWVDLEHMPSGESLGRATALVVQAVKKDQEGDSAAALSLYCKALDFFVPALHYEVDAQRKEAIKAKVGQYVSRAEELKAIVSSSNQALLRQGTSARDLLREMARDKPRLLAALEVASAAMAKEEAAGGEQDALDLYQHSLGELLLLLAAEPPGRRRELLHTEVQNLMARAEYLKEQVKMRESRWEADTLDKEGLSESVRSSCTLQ

[10] = biological target: Fibroblast growth factor receptor 2 (Homo sapiens) (UniProt P21802)
[11] = biological target: Serine/threonine-protein kinase WNK1 (Homo sapiens) (UniProt Q9H4A3)
[12] = biological target: Cyclin-dependent kinase 7 (Homo sapiens) (UniProt P50613)
[13] = biological target: SRSF protein kinase 1 (Homo sapiens) (UniProt Q96SB4)
[14] = biological target: Mitogen-activated protein kinase kinase kinase 4 (Homo sapiens) (UniProt Q9Y6R4)
[15] = biological target: Calcium/calmodulin-dependent protein kinase type II subunit alpha (Homo sapiens) (UniProt Q9UQM7)
[16] = biological target: Receptor-interacting serine/threonine-protein kinase 1 (Homo sapiens) (UniProt Q13546)
[17] = biological target: Calcium/calmodulin-dependent protein kinase type II subunit gamma (Homo sapiens) (UniProt Q13555)
[18] = biological target: Phosphatidylinositol 4-kinase beta (Homo sapiens) (UniProt Q9UBF8)
[19] = biological target: Tyrosine-protein kinase Fgr (Homo sapiens) (UniProt P09769)
[20] = test system: Tyrosine-protein kinase ABL1 (Homo sapiens), P00519 [E255K]
[21] = biological target: SRSF protein kinase 2 (Homo sapiens) (UniProt P78362)
[22] = biological target: Myotonin-protein kinase (Homo sapiens) (UniProt Q09013)
[23] = test system: Serine/threonine-protein kinase B-raf (Homo sapiens), P15056 [V600E]
[24] = biological target: Tyrosine-protein kinase JAK1 (Homo sapiens) (UniProt P23458)
[25] = test system: Tyrosine-protein kinase ABL1 (Homo sapiens), P00519 [F317L]
[26] = biological target: Serine/threonine-protein kinase 38 (Homo sapiens) (UniProt Q15208)
[27] = biological target: Uncharacterized serine/threonine-protein kinase SBK3 (Homo sapiens) (UniProt P0C264)
[28] = biological target: Serine/threonine-protein kinase RIO1 (Homo sapiens) (UniProt Q9BRS2)
[29] = biological target: Activin receptor type-1-like (Homo sapiens) (UniProt P37023)
[30] = biological target: Fibroblast growth factor receptor 1 (Homo sapiens) (UniProt P11362)
[31] = biological target: Ribosomal protein S6 kinase alpha-3 (Homo sapiens) (UniProt P51812)
Ribosomal protein S6 kinase alpha-3 (Homo sapiens), sequence (P51812 whole entry): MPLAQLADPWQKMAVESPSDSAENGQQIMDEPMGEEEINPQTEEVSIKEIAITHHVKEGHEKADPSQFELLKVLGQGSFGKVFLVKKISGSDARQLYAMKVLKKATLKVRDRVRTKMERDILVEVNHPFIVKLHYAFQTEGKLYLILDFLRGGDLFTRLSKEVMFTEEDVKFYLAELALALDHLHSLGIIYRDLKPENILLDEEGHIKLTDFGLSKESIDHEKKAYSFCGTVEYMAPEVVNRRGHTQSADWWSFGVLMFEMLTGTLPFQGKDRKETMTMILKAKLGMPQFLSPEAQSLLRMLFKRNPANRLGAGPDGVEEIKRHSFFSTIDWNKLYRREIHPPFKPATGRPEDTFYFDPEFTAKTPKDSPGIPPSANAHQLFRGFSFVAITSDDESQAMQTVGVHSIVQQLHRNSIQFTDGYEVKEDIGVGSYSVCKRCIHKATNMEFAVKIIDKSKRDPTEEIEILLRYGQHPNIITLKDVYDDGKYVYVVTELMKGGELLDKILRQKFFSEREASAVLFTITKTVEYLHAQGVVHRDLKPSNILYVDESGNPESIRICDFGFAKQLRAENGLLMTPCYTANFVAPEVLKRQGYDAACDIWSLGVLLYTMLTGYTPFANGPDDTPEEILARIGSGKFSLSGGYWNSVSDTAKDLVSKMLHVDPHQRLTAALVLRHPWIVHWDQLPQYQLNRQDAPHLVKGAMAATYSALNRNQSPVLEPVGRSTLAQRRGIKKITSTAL

[32] = biological target: Focal adhesion kinase 1 (Homo sapiens) (UniProt Q05397)
Focal adhesion kinase 1 (Homo sapiens), sequence (Q05397 2-1052 limits assumed): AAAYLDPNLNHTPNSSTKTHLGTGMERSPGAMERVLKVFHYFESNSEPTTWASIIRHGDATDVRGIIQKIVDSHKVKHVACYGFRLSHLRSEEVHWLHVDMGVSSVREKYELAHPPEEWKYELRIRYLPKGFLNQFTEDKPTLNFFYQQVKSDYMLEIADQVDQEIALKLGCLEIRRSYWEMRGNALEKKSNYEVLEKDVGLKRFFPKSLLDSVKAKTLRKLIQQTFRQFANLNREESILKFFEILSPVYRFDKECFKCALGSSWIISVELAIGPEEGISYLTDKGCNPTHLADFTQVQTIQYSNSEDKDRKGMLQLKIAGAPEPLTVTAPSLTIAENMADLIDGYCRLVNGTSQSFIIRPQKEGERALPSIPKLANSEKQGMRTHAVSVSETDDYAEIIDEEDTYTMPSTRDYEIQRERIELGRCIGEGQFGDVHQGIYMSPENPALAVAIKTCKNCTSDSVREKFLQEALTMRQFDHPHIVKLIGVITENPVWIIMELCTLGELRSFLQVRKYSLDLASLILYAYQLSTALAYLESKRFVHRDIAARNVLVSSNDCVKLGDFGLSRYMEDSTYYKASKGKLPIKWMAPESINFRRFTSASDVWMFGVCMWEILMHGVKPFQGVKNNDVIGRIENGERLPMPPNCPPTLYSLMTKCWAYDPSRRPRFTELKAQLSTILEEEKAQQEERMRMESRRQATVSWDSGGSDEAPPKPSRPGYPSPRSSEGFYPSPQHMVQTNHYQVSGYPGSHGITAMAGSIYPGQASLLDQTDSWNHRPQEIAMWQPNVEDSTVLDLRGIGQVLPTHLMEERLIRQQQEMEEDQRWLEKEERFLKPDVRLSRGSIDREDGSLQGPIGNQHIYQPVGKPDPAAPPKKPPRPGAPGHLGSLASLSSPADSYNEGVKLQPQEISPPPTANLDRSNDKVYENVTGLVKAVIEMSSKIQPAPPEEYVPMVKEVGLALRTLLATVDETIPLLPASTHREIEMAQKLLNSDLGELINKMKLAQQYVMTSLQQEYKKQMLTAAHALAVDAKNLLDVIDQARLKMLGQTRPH

[33] = biological target: Phosphatidylinositol 3-kinase C2 domain-containing subunit gamma (Homo sapiens) (UniProt O75747)
[34] = test system: Receptor-type tyrosine-protein kinase FLT3 (Homo sapiens), P36888 [D835H]
[35] = biological target: Ribosomal protein S6 kinase alpha-6 (Homo sapiens) (UniProt Q9UK32)
[36] = biological target: Inhibitor of nuclear factor kappa-B kinase subunit alpha (Homo sapiens) (UniProt O15111)
[37] = biological target: Dual specificity testis-specific protein kinase 1 (Homo sapiens) (UniProt Q15569)
[38] = biological target: Receptor-interacting serine/threonine-protein kinase 2 (Homo sapiens) (UniProt O43353)
Receptor-interacting serine/threonine-protein kinase 2 (Homo sapiens), sequence (O43353 whole entry): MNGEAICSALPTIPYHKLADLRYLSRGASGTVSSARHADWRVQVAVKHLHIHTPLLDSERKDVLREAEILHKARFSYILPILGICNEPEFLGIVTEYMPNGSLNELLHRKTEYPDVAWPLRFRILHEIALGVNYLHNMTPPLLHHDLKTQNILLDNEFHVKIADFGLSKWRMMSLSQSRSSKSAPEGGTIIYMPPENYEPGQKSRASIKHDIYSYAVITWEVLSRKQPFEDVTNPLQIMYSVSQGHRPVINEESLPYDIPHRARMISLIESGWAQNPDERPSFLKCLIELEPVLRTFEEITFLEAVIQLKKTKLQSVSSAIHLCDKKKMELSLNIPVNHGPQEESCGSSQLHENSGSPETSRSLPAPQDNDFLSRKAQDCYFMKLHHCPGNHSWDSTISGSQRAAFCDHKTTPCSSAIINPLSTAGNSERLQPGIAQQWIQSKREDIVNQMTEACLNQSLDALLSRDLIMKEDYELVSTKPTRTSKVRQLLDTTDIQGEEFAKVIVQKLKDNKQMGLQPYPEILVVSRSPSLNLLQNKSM

[39] = biological target: Serine/threonine-protein kinase RIO3 (Homo sapiens) (UniProt O14730)
[40] = biological target: Mitogen-activated protein kinase kinase kinase kinase 4 (Homo sapiens) (UniProt O95819)
[41] = biological target: Serine/threonine-protein kinase pim-1 (Homo sapiens) (UniProt P11309)
[42] = biological target: Wee1-like protein kinase (Homo sapiens) (UniProt P30291)
[43] = biological target: Serine/threonine-protein kinase PRP4 homolog (Homo sapiens) (UniProt Q13523)
[44] = biological target: Serine/threonine-protein kinase ULK2 (Homo sapiens) (UniProt Q8IYT8)
Serine/threonine-protein kinase ULK2 (Homo sapiens), sequence (Q8IYT8 whole entry): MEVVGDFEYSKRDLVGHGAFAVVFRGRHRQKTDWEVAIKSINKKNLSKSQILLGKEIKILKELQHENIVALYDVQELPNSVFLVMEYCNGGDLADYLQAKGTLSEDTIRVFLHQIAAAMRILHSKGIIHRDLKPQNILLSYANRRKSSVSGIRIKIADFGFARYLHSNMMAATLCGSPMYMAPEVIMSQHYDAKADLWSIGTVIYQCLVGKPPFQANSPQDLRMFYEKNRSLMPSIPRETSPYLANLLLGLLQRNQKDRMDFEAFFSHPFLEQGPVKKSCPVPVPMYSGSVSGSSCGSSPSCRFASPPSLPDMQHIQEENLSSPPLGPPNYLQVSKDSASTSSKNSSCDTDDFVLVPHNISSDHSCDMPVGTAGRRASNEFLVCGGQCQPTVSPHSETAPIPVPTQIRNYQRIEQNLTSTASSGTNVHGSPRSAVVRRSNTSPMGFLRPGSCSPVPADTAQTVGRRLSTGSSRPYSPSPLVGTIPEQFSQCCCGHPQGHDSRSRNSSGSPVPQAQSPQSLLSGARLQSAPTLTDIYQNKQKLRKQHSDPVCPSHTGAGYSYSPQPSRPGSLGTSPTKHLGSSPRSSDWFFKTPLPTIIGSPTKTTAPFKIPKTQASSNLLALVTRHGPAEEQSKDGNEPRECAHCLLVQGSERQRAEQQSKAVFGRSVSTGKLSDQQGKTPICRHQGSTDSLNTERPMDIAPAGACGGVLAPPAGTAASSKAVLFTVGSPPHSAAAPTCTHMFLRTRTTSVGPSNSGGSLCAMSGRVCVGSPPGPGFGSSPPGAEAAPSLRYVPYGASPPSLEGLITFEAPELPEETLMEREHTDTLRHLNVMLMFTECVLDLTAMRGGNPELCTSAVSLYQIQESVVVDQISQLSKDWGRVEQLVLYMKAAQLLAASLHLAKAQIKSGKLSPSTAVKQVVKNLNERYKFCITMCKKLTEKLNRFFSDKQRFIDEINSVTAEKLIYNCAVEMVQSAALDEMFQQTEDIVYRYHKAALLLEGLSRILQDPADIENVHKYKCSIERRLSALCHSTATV

[45] = test system: Epidermal growth factor receptor (Homo sapiens), P00533 [L858R,T790M]

CCOC(=O)c1cc2cc(-c3cc(C(=O)NCc4ccc(C(=O)O)cc4)nn3C)ccc2[nH]1 [BI 4394] was tested, and the residual activity [1] was 100%, the residual activity [2] was 91% and the residual activity [3] was 100%. The residual activity [4] was 96%, the residual activity [5] was 100% and the residual activity [6] was 81%. For the same compound, the residual activity [7] was 100%, the residual activity [8] was 100% and the residual activity [9] was 100%. For the same compound, the residual activity [10] was 89%, the residual activity [11] was 93% and the residual activity [12] was 76%. For the same compound, the residual activity [13] was 75%, the residual activity [14] was 91% and the residual activity [15] was 76%. For the same compound, the residual activity [16] was 100%, the residual activity [17] was 100% and the residual activity [18] was 79%. It also gave a residual activity [19] of 94%, a residual activity [20] of 88% and a residual activity [21] of 100%. It also gave a residual activity [22] of 87%, a residual activity [23] of 100% and a residual activity [24] of 94%. For the same compound, the residual activity [25] was 61%, the residual activity [26] was 95% and the residual activity [27] was 87%. For the same compound, the residual activity [28] was 96%, the residual activity [29] was 68% and the residual activity [30] was 86%. For the same compound, the residual activity [31] was 100%, the residual activity [32] was 94% and the residual activity [33] was 100%. For the same compound, the residual activity [34] was 100%, the residual activity [35] was 95% and the residual activity [36] was 100%. For the same compound, the residual activity [37] was 97%, the residual activity [38] was 100% and the residual activity [39] was 100%. For the same compound, the residual activity [40] was 95%, the residual activity [41] was 95% and the residual activity [42] was 90%. The residual activity [43] was 89%, the residual activity [44] was 78% and the residual activity [45] was 100%.

With Cn1nc(C(=O)NCc2ccc(C(=O)O)cc2)cc1-c1ccc2[nH]ccc2c1 [BI 4395] the residual activity [1] was 84%, the residual activity [2] was 76% and the residual activity [3] was 100%. For the same compound, the residual activity [4] was 100%, the residual activity [5] was 23% and the residual activity [6] was 77%. It also gave a residual activity [7] of 85%, a residual activity [8] of 94% and a residual activity [9] of 99%. For the same compound, the residual activity [10] was 87%, the residual activity [11] was 100% and the residual activity [12] was 100%. It also gave a residual activity [13] of 33%, a residual activity [14] of 86% and a residual activity [15] of 79%. For the same compound, the residual activity [16] was 100%, the residual activity [17] was 83% and the residual activity [18] was 70%. It also gave a residual activity [19] of 87%, a residual activity [20] of 65% and a residual activity [21] of 85%. It also gave a residual activity [22] of 76%, a residual activity [23] of 89% and a residual activity [24] of 84%. It also gave a residual activity [25] of 87%, a residual activity [26] of 92% and a residual activity [27] of 79%. It also gave a residual activity [28] of 76%, a residual activity [29] of 97% and a residual activity [30] of 84%. For the same compound, the residual activity [31] was 78%, the residual activity [32] was 85% and the residual activity [33] was 100%. It also gave a residual activity [34] of 46%, a residual activity [35] of 86% and a residual activity [36] of 90%. For the same compound, the residual activity [37] was 92%, the residual activity [38] was 100% and the residual activity [39] was 83%. It also gave a residual activity [40] of 92%, a residual activity [41] of 91% and a residual activity [42] of 100%. It also gave a residual activity [43] of 100%, a residual activity [44] of 98% and a residual activity [45] of 92%.
